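These data come from cells grown in 96-well plates and exposed to compound for 48 hours at five concentrations. At the GI50, growth is halved. TGI: concentration producing complete growth inhibition.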 A value given as a limit tells only on which side of the number the result lay.

From PubChem BioAssay (NCI) come the findings set out here.

Among the test systems are DU-145 prostate; EKVX NSCLC; HS 578T breast; MCF7 breast; MOLT-4 leukemia; NCI-H226 lung; NCI-H460 lung; OVCAR-5 ovarian; SK-MEL-2 melanoma; SNB-75 CNS.
What all share (experiment): NCI anticancer screen, dose series, 48 h

With `C=C1C(=O)O[C@H]2[C@H]1CC/C(COC(=O)NCc1ccc(Cn3c(=O)sn(CCCI)c3=O)cc1)=C\CC[C@@]1(C)O[C@@H]21`, the GI50 in the assay with DU-145 prostate is 1740 nM; with EKVX NSCLC, 2090 nM; in the assay with HS 578T breast, 3170 nM; in the assay with MCF7 breast it was 1410 nM; in the assay on MOLT-4 leukemia, 294 nM; in the assay with NCI-H226 lung, 14100 nM. The GI50 with NCI-H460 lung is 3.2 µM; with OVCAR-5 ovarian, 1850 nM; in the assay on SK-MEL-2 melanoma, 2420 nM. Moreover, the TGI in the assay on DU-145 prostate turned out to be 3.16 µM; in the assay with EKVX NSCLC, 6.77 µM; with HS 578T breast, 14.5 µM; in the assay with MCF7 breast, 3.24 µM; with MOLT-4 leukemia, 3.19 µM; in the assay with NCI-H226 lung it was 37.7 µM. The TGI is 10.3 µM in the assay with NCI-H460 lung, 4.17 µM with OVCAR-5 ovarian and 7.19 µM with SK-MEL-2 melanoma.
Regarding `O=c1c2cc(F)ccc2sc2c(NCCCNCCO)nc3ccc(F)cc3c12`, the GI50 is 1760 nM in the assay on DU-145 prostate; 1520 nM in the assay with EKVX NSCLC; 1790 nM with HS 578T breast; 1620 nM in the assay on MCF7 breast; 1760 nM in the assay with NCI-H226 lung; 1.63 µM in the assay on NCI-H460 lung. The GI50 in the assay on OVCAR-5 ovarian was 1620 nM; in the assay with SK-MEL-2 melanoma, 2040 nM; with SNB-75 CNS, 1510 nM. The TGI in the assay with DU-145 prostate was 3.19 µM; in the assay with EKVX NSCLC, 3.07 µM; with HS 578T breast it was 4.1 µM; in the assay with MCF7 breast, 3.2 µM; with NCI-H226 lung it was 3.52 µM; in the assay with NCI-H460 lung it was 3.24 µM. Also, the figures for the TGI in the assay with OVCAR-5 ovarian, with SK-MEL-2 melanoma and in the assay on SNB-75 CNS were 3.04 µM, 4.34 µM and 3.27 µM, respectively.
Turning to `O=c1[nH]c(-c2ccncc2)nc2sc3c(c12)CCCCCC3`, the GI50 with DU-145 prostate is > 100000 nM; in the assay on HS 578T breast, > 100000 nM; with MCF7 breast, > 100000 nM; in the assay on MOLT-4 leukemia, > 100000 nM; in the assay with NCI-H226 lung, > 100000 nM; with NCI-H460 lung, > 100 µM. For the same compound, the GI50 was > 100000 nM in the assay on OVCAR-5 ovarian, > 100000 nM in the assay on SK-MEL-2 melanoma and 2710 nM with SNB-75 CNS. Besides, the TGI in the assay on DU-145 prostate, in the assay on HS 578T breast, in the assay on MCF7 breast, with MOLT-4 leukemia, in the assay on NCI-H226 lung and in the assay with NCI-H460 lung was > 100 µM each time. Moreover, the TGI in the assay on OVCAR-5 ovarian, with SK-MEL-2 melanoma and in the assay with SNB-75 CNS was > 100 µM each time.
With `N/C(=N\O)c1cn(C2OC(CO)C(O)C2O)c2ncnc(N)c12` (stereo unspecified), the GI50 in the assay with DU-145 prostate was 190 nM; in the assay with HS 578T breast, 263 nM; with MCF7 breast, 56 nM; in the assay with MOLT-4 leukemia, 277 nM; with NCI-H226 lung, 446 nM; in the assay on NCI-H460 lung it was 0.138 µM. For the same compound, the GI50 with OVCAR-5 ovarian is 507 nM; in the assay on SK-MEL-2 melanoma it was 128 nM; in the assay with SNB-75 CNS it was 180 nM. Further, the TGI in the assay with HS 578T breast is 3.62 µM; in the assay with MCF7 breast, 1.07 µM; with MOLT-4 leukemia, 1.64 µM; in the assay on NCI-H226 lung it was 49.6 µM; in the assay on NCI-H460 lung, 0.987 µM; with OVCAR-5 ovarian it was > 40.5 µM. Besides, the TGI in the assay on SK-MEL-2 melanoma was found to be 0.4 µM; with SNB-75 CNS, 6.17 µM.
On to `Cc1ccccc1C1N=C2Oc3ccccc3C=C2C(=O)N1` (stereo unspecified), for which the GI50 in the assay on DU-145 prostate is 2090 nM; in the assay with HS 578T breast, 2820 nM; with MCF7 breast, 793 nM; in the assay on MOLT-4 leukemia, 19000 nM; in the assay on NCI-H226 lung, > 100000 nM; with NCI-H460 lung, 4.34 µM. For the same compound, the GI50 is 2510 nM with OVCAR-5 ovarian, 535 nM in the assay with SK-MEL-2 melanoma and 1510 nM in the assay on SNB-75 CNS. Also, the TGI with DU-145 prostate, with HS 578T breast, in the assay on MCF7 breast, with MOLT-4 leukemia, in the assay with NCI-H226 lung and with NCI-H460 lung was > 100 µM in each case. The TGI in the assay on OVCAR-5 ovarian, in the assay with SK-MEL-2 melanoma and in the assay on SNB-75 CNS was > 100 µM in each case.
On to `OC1(c2ccccc2)c2ccccc2N(c2ccccc2)c2ccc(Cl)cc21` (stereo unspecified), for which the GI50 in the assay with DU-145 prostate is 412 nM; with EKVX NSCLC, 286 nM; in the assay on HS 578T breast, 332 nM; in the assay on MCF7 breast it was 299 nM; with MOLT-4 leukemia it was 294 nM; with NCI-H460 lung it was 0.246 µM. The GI50 in the assay on OVCAR-5 ovarian is 457 nM; in the assay with SK-MEL-2 melanoma it was 240 nM; with SNB-75 CNS, 293 nM. Further, the TGI in the assay with DU-145 prostate turned out to be 1.39 µM; in the assay with EKVX NSCLC it was 1.25 µM; in the assay on HS 578T breast, 1.81 µM; in the assay with MCF7 breast it was 0.894 µM; with MOLT-4 leukemia, 1.25 µM; with NCI-H460 lung it was 0.568 µM. The TGI came to 1.28 µM in the assay with OVCAR-5 ovarian, 0.485 µM in the assay with SK-MEL-2 melanoma and 1.11 µM with SNB-75 CNS.
Regarding `C=CN(C(=O)N1CCN(c2cc3c(cc2F)c(=O)c(C(=O)O)cn3C2CC2)CC1)c1nc(-c2ccc(C)cc2)cs1`, the GI50 with DU-145 prostate was 3800 nM; in the assay with EKVX NSCLC, 3610 nM; with HS 578T breast, 3450 nM; in the assay with MCF7 breast, 2880 nM; with NCI-H226 lung, 2910 nM; in the assay with NCI-H460 lung, 3.38 µM. Besides, the results for the GI50 with OVCAR-5 ovarian and in the assay on SNB-75 CNS were 4140 nM and 2130 nM, respectively. Further, the TGI was > 100 µM in the assay with DU-145 prostate; > 100 µM in the assay with EKVX NSCLC; 21.3 µM in the assay on HS 578T breast; 11.5 µM in the assay on MCF7 breast; > 100 µM with NCI-H226 lung; > 100 µM in the assay on NCI-H460 lung. Moreover, the TGI in the assay with OVCAR-5 ovarian is > 100 µM; with SNB-75 CNS it was 6.59 µM.
`FC(F)(F)c1ccc(-c2cnc(-c3nn[nH]n3)nc2NC2CCCCCC2)cc1`: the GI50 in the assay with DU-145 prostate is > 10000 nM; in the assay on HS 578T breast it was > 10000 nM; in the assay on MCF7 breast, > 10000 nM; in the assay with MOLT-4 leukemia, > 10000 nM; in the assay with NCI-H226 lung, > 10000 nM; with NCI-H460 lung it was > 10 µM. The GI50 in the assay with OVCAR-5 ovarian, in the assay with SK-MEL-2 melanoma and with SNB-75 CNS was > 10000 nM throughout. Besides, the TGI in the assay on DU-145 prostate, with HS 578T breast, with MCF7 breast, in the assay with MOLT-4 leukemia, in the assay with NCI-H226 lung and in the assay with NCI-H460 lung was > 10 µM in each case. The TGI with OVCAR-5 ovarian, with SK-MEL-2 melanoma and with SNB-75 CNS was > 10 µM throughout.
